Source: a flash point compilation (Sun et al. 2020)
Counter-ions that a name gives are not always drawn.

Row | SMILES | flash point [°C]
1 | NC=O [formamide] | 154.00
2 | O=CO [formic acid] | 69.00
3 | O=C1C=CC(=O)O1 [furan-2,5-dione] | 103.00
4 | NCc1ccco1 [furan-2-ylmethanamine] | 37.00
5 | C=CCCCCC [hept-1-ene] | -4.00
6 | CCCCCCCS [heptane-1-thiol] | 46.00
7 | C=CCCCC [hex-1-ene] | -26.00
8 | CCCCCCCCCCCCCCCCS [hexadecane-1-thiol] | 102.00
9 | CCCCCCN [hexan-1-amine] | 29.00
10 | CCCCC(C)O (stereo not given) [hexan-2-ol] | 41.00
11 | CCCCCCS [hexane-1-thiol] | 20.00
12 | CCCC(=O)C(C)=O [hexane-2,3-dione] | 28.00
13 | CC(=O)CCC(C)=O [hexane-2,5-dione] | 79.00
14 | N#CCCCCC#N [hexanedinitrile] | 93.00
15 | CCCCCC(=O)O [hexanoic acid] | 104.00
16 | C=C(C)C(=O)OCCCCCC [hexyl 2-methylprop-2-enoate] | 82.00
17 | CCCCCCOC(C)=O [hexyl acetate] | 37.00
18 | S=C1NCCN1 [imidazolidine-2-thione] | 252.00
19 | CCI [iodoethane] | 61.00
20 | O=C=NC1CCCCC1 [isocyanatocyclohexane] | 49.00
21 | C [methane] | -188.00
22 | S=C=S [methanedithione] | -30.00
23 | CS [methanethiol] | -18.00
24 | CCOC [methoxyethane] | -37.00
25 | C=COC [methoxyethene] | -56.00
26 | COC(=O)C(Cl)Cl [methyl 2,2-dichloroacetate] | 80.00
27 | CNc1ccccc1C(=O)OC [methyl 2-(methylamino)benzoate] | 91.00

Row | SMILES | flash point [°C]
28 | COC(=O)C(C)Oc1ccc(Oc2ccc(Cl)cc2Cl)cc1 (stereo not given) [methyl 2-[4-(2,4-dichlorophenoxy)phenoxy]propanoate] | 38.00
29 | COC(=O)c1ccccc1O [methyl 2-hydroxybenzoate] | 96.00
30 | COS(=O)(=O)c1ccc(C)cc1 [methyl 4-methylbenzenesulfonate] | 152.00
31 | COC(=O)c1ccc(C)cc1 [methyl 4-methylbenzoate] | 96.00
32 | COC(=O)/C=C(\C)OP(=O)(OC)OC [methyl (E)-3-dimethoxyphosphoryloxybut-2-enoate] | 79.00
33 | COC(C)=O [methyl acetate] | -10.00
34 | CCCC(=O)OC [methyl butanoate] | 14.00
35 | CCCCCC(=O)OC [methyl hexanoate] | 73.00
36 | COS(C)(=O)=O [methyl methanesulfonate] | 104.00
37 | CCCCCCCCCCCCCCCCCC(=O)OC [methyl octadecanoate] | 153.00
38 | C=CC(=O)OC [methyl prop-2-enoate] | 7.00
39 | CCC(=O)OC [methyl propanoate] | -2.00
40 | CS(C)=O [methylsulfinylmethane] | 95.00
41 | Nc1cccc2ccccc12 [naphthalen-1-amine] | 157.00
42 | Oc1cccc2c(O)cccc12 [naphthalene-1,5-diol] | 252.00
43 | c1ccc2ccccc2c1 [naphthalene] | 88.00
44 | C[N+](=O)[O-] [nitromethane] | 35.00
45 | C=CCCCCCCC [non-1-ene] | 26.00
46 | CCCCCCCCC=O [nonanal] | 83.00
47 | O=C(O)CCCCCCCC(=O)O [nonanedioic acid] | 210.00
48 | CCCCCCCCC(=O)O [nonanoic acid] | 133.00
49 | C=CCCCCCC [oct-1-ene] | 21.00
50 | CCCCCCCCCCCCCCCCCCN [octadecan-1-amine] | 149.00
51 | CCCCCCCCCCCCCCCCCCS [octadecane-1-thiol] | 185.00
52 | CCCCCCCCCCCCCCCCCCOC(=O)CCCCCCCCCCCCCCC [octadecyl hexadecanoate] | 238.00
53 | CCCCCC(=O)CC [octan-3-one] | 46.00
54 | CCCCCCCC=O [octanal] | 52.00

Row | SMILES | flash point [°C]
55 | CCCCCCCC(=O)O [octanoic acid] | 110.00
56 | C=C(C)C(=O)OCCCCCCCC [octyl 2-methylprop-2-enoate] | 91.00
57 | C=CC(=O)OCCCCCCCC [octyl prop-2-enoate] | 82.00
58 | O=CC=O [oxaldehyde] | 220.00
59 | O=C1CCO1 [oxetan-2-one] | 70.00
60 | C=CC(=O)OCC1CO1 (stereo not given) [oxiran-2-ylmethyl prop-2-enoate] | 61.00
61 | C1CO1 [oxirane] | -18.00
62 | O=C1CCCO1 [oxolan-2-one] | 98.00
63 | OCC1CCCO1 (stereo not given) [oxolan-2-ylmethanol] | 75.00
64 | O=C1CCC(=O)O1 [oxolane-2,5-dione] | 157.00
65 | C1CCOC1 [oxolane] | -14.00
66 | C=CCCC [pent-1-ene] | -51.00
67 | C=CC=CC [penta-1,3-diene] | -28.00
68 | CCCC(C)OC(C)=O (stereo not given) [pentan-2-yl acetate] | 32.00
69 | CCCCCO[N+](=O)[O-] [pentyl nitrate] | 49.00
70 | c1ccc(Oc2ccccc2)cc1 [phenoxybenzene] | 115.00
71 | C=CC=O [prop-2-enal] | -26.00
72 | C=CC(=O)O [prop-2-enoic acid] | 54.00
73 | C=CC(=O)Cl [prop-2-enoyl chloride] | 14.00
74 | C=CCOC(=O)COCCC(C)C [prop-2-enyl 2-(3-methylbutoxy)acetate] | 68.00
75 | CC(C)=O [propan-2-one] | -18.00
76 | CC(C)OC(=O)Cc1ccccc1 [propan-2-yl 2-phenylacetate] | 95.00
77 | CCCS [propane-1-thiol] | -15.00
78 | CCC(=O)OC(=O)CC [propanoyl propanoate] | 63.00
79 | ClC(Cl)(Cl)c1ccccc1 [trichloromethylbenzene] | 127.00
80 | C1=CC2C3C=CC(C3)C2C1 (stereo not given) [tricyclo[5.2.1.02,6]deca-3,8-diene] | 32.00

Continued, values first:

Row | flash point [°C] | SMILES
81 | 30.00 | CCC(O)CC [pentan-3-ol]
82 | 62.00 | NCCCCCN [pentane-1,5-diamine]
83 | 129.00 | OCCCCCO [pentane-1,5-diol]
84 | 19.00 | CCC(=O)C(C)=O [pentane-2,3-dione]
85 | 33.00 | CCCCCOC(C)=O [pentyl acetate]
86 | 26.00 | CCCCCOC=O [pentyl formate]
87 | 41.00 | CCCCCOC(=O)CC [pentyl propanoate]
88 | 80.00 | CC(=O)Oc1ccccc1 [phenyl acetate]
89 | 101.00 | OCc1ccccc1 [phenylmethanol]
90 | 88.00 | C1CNCCN1 [piperazine]
91 | 16.00 | C=C(C)OC(C)=O [prop-1-en-2-yl acetate]
92 | 54.00 | C=C(C)c1ccccc1 [prop-1-en-2-ylbenzene]
93 | -108.00 | C=CC [prop-1-ene]
94 | 39.00 | C=CCOC(=O)CC(C)C [prop-2-enyl 3-methylbutanoate]
95 | -37.00 | CC(C)N [propan-2-amine]
96 | -6.00 | CC(C)OC=O [propan-2-yl formate]
97 | 99.00 | CC(O)CO (stereo not given) [propane-1,2-diol]
98 | -34.00 | CC(C)S [propane-2-thiol]
99 | 54.00 | CCC(=O)O [propanoic acid]
100 | 30.00 | C=C(C)C(=O)OCCC [propyl 2-methylprop-2-enoate]

Row | flash point [°C] | SMILES
101 | 187.00 | CCCOC(=O)c1cc(O)c(O)c(O)c1 [propyl 3,4,5-trihydroxybenzoate]
102 | 14.00 | CCCOC(C)=O [propyl acetate]
103 | 48.00 | CCCc1ccccc1 [propylbenzene]
104 | 92.00 | Nc1ccccn1 [pyridin-2-amine]
105 | 190.00 | NNC(=O)c1ccncc1 [pyridine-4-carbohydrazide]
106 | 31.00 | C=Cc1ccccc1 [styrene]
107 | 60.00 | CC(C)(C)c1ccccc1 [tert-butylbenzene]
108 | 100.00 | CCCCCCCCCCCCCC [tetradecane]
109 | -27.00 | C[Si](C)(C)C [tetramethylsilane]
110 | 13.00 | C1CCSC1 [thiolane]
111 | 93.00 | CCCCOB(OCCCC)OCCCC [tributyl borate]
112 | 91.00 | Cl[Si](Cl)(Cl)C1CCCCC1 [trichloro(cyclohexyl)silane]
113 | 146.00 | CCCCCCCCCCCCCCCC[Si](Cl)(Cl)Cl [trichloro(hexadecyl)silane]
114 | 89.00 | CCCCCCCCCCCCCCCCCC[Si](Cl)(Cl)Cl [trichloro(octadecyl)silane]
115 | 63.00 | CCCCC[Si](Cl)(Cl)Cl [trichloro(pentyl)silane]
116 | 35.00 | C=CC[Si](Cl)(Cl)Cl [trichloro(prop-2-enyl)silane]
117 | 141.00 | Clc1ccc([Si](Cl)(Cl)Cl)cc1Cl [trichloro-(3,4-dichlorophenyl)silane]
118 | 79.00 | C=CCCCCCCCCCCC [tridec-1-ene]
119 | 107.00 | CCCCCCCCCCCC(C)=O [tridecan-2-one]
120 | -53.00 | C[CH2][Al]([CH2]C)[CH2]C [triethylalumane]
